Measurements published in patent US20090155784A1, “ASSESSMENT OF ASTHMA AND ALLERGEN-DEPENDENT GENE EXPRESSION” (Wyeth, priority 2007, published 2009).

Tested on: PBMCs from healthy volunteers
Assay: HG-U133A baseline gene expression in PBMCs of healthy volunteers (HV), cPLA2 inhibitor in the absence of allergen (no AG)
Type: cell-based, human
Text: PBMCs were stimulated in vitro with a cocktail containing 4 different allergens from house dust mite, ragweed and cat. Recombinant allergens, Der p1, Der f2, Fel d1 (Indoor Biotech, Charlottesville, Va.) and natural ragweed allergen (Allergy Lab, Seattle, Wash.) were selected and screened for endotoxin contamination (LAL Endotoxin Test, Catalog #HIT302, sensitivity, 0.0001 Eu/ml, Cell Sciences, Canton, Mass.). The sensitivity of the subjects was unknown but the allergens were chosen based on the estimate that 80% of allergic individuals are believed to react to one or more of these allergens. Culture medium contained RPMI-1640 (Sigma) with 10% heat inactivated FCS (Sigma St. Louis, Mo.) and 100 unit/mL Penicillin and […] Streptomycin and 0.292 mg/mL Glutamine (GIBCO RL Invitrogen, Carlsbad, Calif.). The final allergen cocktail concentrations in culture medium were: Der p1 and Der f2 (dust mite), 1 mg/ml; Fel d1 (cat), 1.25 mg/ml; ragweed, 125 mg/ml. The total level of endotoxin contamination in culture medium was 0.057 Eu/ml. The cPLA2 inhibitor 4-{3-[1-benzhydryl-5-chloro-2-(2-{[(2,6-dimethylbenzyl)sulfonyl]amino}ethyl)-1H-indol-3-yl]propyl}benzoic acid was used at a concentration of 0.3 μM/ml. Zileuton, a 5-lipoxygenase inhibitor, was added at a concentration of 5 μM. The inhibitory activity of both the cPLA2 inhibitor and Zileuton samples were verified in a human whole blood assay. After 6 days in culture approximately 200 μL of supernatant was removed using an 8-channel pipettor without disturbing the cell pellet and placed into a collection plate for cytokine ELISA assays. To the remaining cell pellet 100 μL of RLT lysis buffer containing 1% beta-mercaptoethanol was added and snap frozen for RNA purification.
RNA was purified using QIA shredders and Rneasy mini kits (Qiagen, Valencia, Calif.). PBMC pellets frozen in RLT lysis buffer containing 1% β-mercaptoethanol were thawed and processed for total RNA isolation using the QIA shredder and RNeasy mini kit. A phenol:chloroform extraction was then performed, and the RNA was repurified using the RNeasy mini kit reagents. Eluted RNA was quantified using a Spectramax96 well plate UV reader (Molecular Devices, Sunnyvale, Calif., USA) monitoring A260/280 OD values. The quality of each RNA sample was assessed by capillary electrophoresis alongside an RNA molecular weight ladder on the Agilent 2100 bioanalyzer (Agilent Technologies, Palo Alto, Calif., USA). RNA samples were assigned quality values of intact (distinct 18S and 28S bands); partially degraded (discernible 18S and 28S bands with presence of low molecular weight bands) or completely degraded (no discernible 18S and 28S bands).
Labeled targets for oligonucleotide arrays were prepared using a modification of the procedure described by Lockhart et al. (Lockhart (1996) Nat. Biotechnol. 14:1675-80). Labeled targets were hybridized to the HG-U133A Affymetrix GeneChip Array as described in the Affymetrix technical manual. Eleven biotinylated control transcripts ranging in abundance from 3 parts per million (ppm) to 100 ppm were spiked into each sample to function as a standard curve (Hill (2001) Genome Biol. 2:RESEARCH0055). GeneChip MAS 5.0 software was used to evaluate the hybridization intensity, compute the signal value for each probe set and make an absent/present call.
GeneChips were required to pass the pre-set quality control criteria that the RNA quality metric required a 5′:3′ ratio. Two asthma subjects were excluded from the study due to failure to meet the RNA quality metric and 2 GeneChips from the group treated with cPLA2a inhibitor were excluded for the same reason. The signal value for each probe set was converted into a frequency value representative of the number of transcripts present in 10^6 transcripts by reference to the standard curve (Hill (2001) Genome Biol. 2:RESEARCH0055). […]

Cc1cccc(C)c1CS(=O)(=O)NCCc1c(CCCc2ccc(C(=O)O)cc2)c2cc(Cl)ccc2n1C(c1ccccc1)c1ccccc1 [cPLA2 inhibitor, 4-{3-[1-benzhydryl-5-chloro-2-(2-{[(2,6-dimethylbenzyl)sulfonyl]amino}ethyl)-1H-indol-3-yl]propyl}benzoic acid]
Fold Change cPLA2 inhibitor vs. no AG HV (probeset 208723_at, gene USP11): 1.191 fold
Fold Change cPLA2 inhibitor vs. no AG HV (probeset 208735_s_at, gene CTDSP2): 1.214 fold
Fold Change cPLA2 inhibitor vs. no AG HV (probeset 208881_x_at, gene IDI1): 1.288 fold
Fold Change cPLA2 inhibitor vs. no AG HV (probeset 208962_s_at, gene UNK_BE540552): 1.667 fold
Fold Change cPLA2 inhibitor vs. no AG HV (probeset 208963_x_at, gene FADS1): 1.668 fold
Fold Change cPLA2 inhibitor vs. no AG HV (probeset 208992_s_at, gene STAT3): 1.161 fold
Fold Change cPLA2 inhibitor vs. no AG HV (probeset 209417_s_at, gene IFI35): 1.367 fold
Fold Change cPLA2 inhibitor vs. no AG HV (probeset 209949_at, gene NCF2): 1.229 fold
Fold Change cPLA2 inhibitor vs. no AG HV (probeset 209969_s_at, gene STAT1): 1.315 fold
Fold Change cPLA2 inhibitor vs. no AG HV (probeset 210029_at, gene INDO): 2.207 fold
Fold Change cPLA2 inhibitor vs. no AG HV (probeset 210146_x_at, gene LILRB2): 1.473 fold
Fold Change cPLA2 inhibitor vs. no AG HV (probeset 210176_at, gene TLR1): 1.302 fold
Fold Change cPLA2 inhibitor vs. no AG HV (probeset 210495_x_at, gene FN1): −16.2745 fold
Fold Change cPLA2 inhibitor vs. no AG HV (probeset 210524_x_at, gene UNK_AF078844): 1.984 fold
Fold Change cPLA2 inhibitor vs. no AG HV (probeset 210754_s_at, gene LYN): 1.482 fold
Fold Change cPLA2 inhibitor vs. no AG HV (probeset 210784_x_at, gene LILRB3): 1.348 fold
Fold Change cPLA2 inhibitor vs. no AG HV (probeset 210962_s_at, gene AKAP9): −1.163 fold
Fold Change cPLA2 inhibitor vs. no AG HV (probeset 211133_x_at, gene LILRB3): 1.349 fold
Fold Change cPLA2 inhibitor vs. no AG HV (probeset 211135_x_at, gene LILRB3): 1.416 fold
Fold Change cPLA2 inhibitor vs. no AG HV (probeset 211456_x_at, gene UNK_AF333388): 2.494 fold
Fold Change cPLA2 inhibitor vs. no AG HV (probeset 211661_x_at, gene PTAFR): 1.264 fold
Fold Change cPLA2 inhibitor vs. no AG HV (probeset 211719_x_at, gene FN1): −18.8559 fold
Fold Change cPLA2 inhibitor vs. no AG HV (probeset 212066_s_at, gene USP34): −1.173 fold
Fold Change cPLA2 inhibitor vs. no AG HV (probeset 212185_x_at, gene MT2A): 2.359 fold
Fold Change cPLA2 inhibitor vs. no AG HV (probeset 212274_at, gene UNK_AV705559): 1.2259 fold
Fold Change cPLA2 inhibitor vs. no AG HV (probeset 212318_at, gene TNPO3): 1.195 fold
Fold Change cPLA2 inhibitor vs. no AG HV (probeset 212464_s_at, gene FN1): −16.6219 fold
Fold Change cPLA2 inhibitor vs. no AG HV (probeset 212859_x_at, gene MT2A): 2.114 fold
Fold Change cPLA2 inhibitor vs. no AG HV (probeset 212907_at, gene SLC30A1): 1.527 fold
Fold Change cPLA2 inhibitor vs. no AG HV (probeset 213571_s_at, gene EIF4EL3): 1.18 fold
Fold Change cPLA2 inhibitor vs. no AG HV (probeset 213629_x_at, gene MT1F): 1.953 fold
Fold Change cPLA2 inhibitor vs. no AG HV (probeset 213716_s_at, gene SECTM1): 1.603 fold
Fold Change cPLA2 inhibitor vs. no AG HV (probeset 214038_at, gene UNK_AI984980): 2.289 fold
Fold Change cPLA2 inhibitor vs. no AG HV (probeset 214179_s_at, gene NFE2L1): 1.302 fold
Fold Change cPLA2 inhibitor vs. no AG HV (probeset 214730_s_at, gene GLG1): 1.22 fold
Fold Change cPLA2 inhibitor vs. no AG HV (probeset 215051_x_at, gene AIF1): 1.464 fold
Fold Change cPLA2 inhibitor vs. no AG HV (probeset 215223_s_at, gene SOD2): 1.584 fold
Fold Change cPLA2 inhibitor vs. no AG HV (probeset 216336_x_at, gene UNK_AL031602): 1.748 fold
Fold Change cPLA2 inhibitor vs. no AG HV (probeset 216442_x_at, gene FN1): −15.6848 fold
Fold Change cPLA2 inhibitor vs. no AG HV (probeset 216841_s_at, gene SOD2): 1.463 fold
Fold Change cPLA2 inhibitor vs. no AG HV (probeset 217165_x_at, gene MT1F): 2.496 fold
Fold Change cPLA2 inhibitor vs. no AG HV (probeset 217965_s_at, gene HCNGP): 1.185 fold
Fold Change cPLA2 inhibitor vs. no AG HV (probeset 218154_at, gene FLJ12150): 1.267 fold
Fold Change cPLA2 inhibitor vs. no AG HV (probeset 218472_s_at, gene PELO): 1.163 fold
Fold Change cPLA2 inhibitor vs. no AG HV (probeset 219159_s_at, gene SLAMF7): 1.736 fold
Fold Change cPLA2 inhibitor vs. no AG HV (probeset 219519_s_at, gene SN): 2.441 fold
Fold Change cPLA2 inhibitor vs. no AG HV (probeset 219788_at, gene PILRA): 1.371 fold
Fold Change cPLA2 inhibitor vs. no AG HV (probeset 221165_s_at, gene IL22): 1.835 fold
Fold Change cPLA2 inhibitor vs. no AG HV (probeset 221558_s_at, gene LEF1): −1.137 fold
Fold Change cPLA2 inhibitor vs. no AG HV (probeset 221581_s_at, gene WBSCR5): 1.343 fold
Fold Change cPLA2 inhibitor vs. no AG HV (probeset 222218_s_at, gene PILRA): 1.292 fold
